Holding throughout (format): cell-based
The subject of one test is SH-SY5Y cells. Briefly: Cell survival experiment (MTT), cell death induced by amyloid β protein. The note with it: compound 12.56 μM, 72 h, compared to “Aβ”. On the procedure: Each well of a 96-well plate (BD Biocoat) was seeded with SH-SY5Y cells (model of neuronal cells, ATCC) at a concentration of 2×10^5 cells/mL (100 μL/well) and the cells were cultured at 37° C. and 5% CO2 for 24 h. Culture medium used was F12/DMEM (Gibco) supplemented with 1% non-essential amino acids (Gibco), 15% FBS (Bio West), and 1% penicillin/streptomycin (Lonza).
After 24 h, the culture medium was completely removed with an aspirator, 100 μL of culture medium Opti-MEM (Gibco) was added to each well, and the cells were cultured at 37° C. and 5% CO2 for 24 h. […]
Absorbance at 570 nm was measured on a microplate reader (Sumitomo Dainippon Pharma) to measure the MTT formazan production to calculate % relative cell survival (designated as “Control” in FIG. 1).
24 h after seeding a 96-well plate (BD Biocoat) with SH-SY5Y cells, the culture medium was completely removed with an aspirator, amyloid β protein (Beta-Amyloid 1-42, AnaSpec) was mixed with Opti-MEM (Gibco) so that the final concentration was 15 μM, 100 μL of the mixture was added to each well, and the cells were cultured at 37° C. and 5% CO2 for 72 h to induce cell death. Except for performing the procedure described above, the MTT formazan production was measured as described above to calculate % relative cell survival (designated as “Aβ” in FIG. 1). […]

The test system of test [1] is MAP2K4 (mitogen-activated protein kinase 4). Kind of test: Gene expression experiment (real-time PCR) in SH-SY5Y cells: MAP2K4. Particulars: 12.56 μM, amyloid β protein-treated cells, 24 h; compared to “Aβ”. The protocol: (§1) SH-SY5Y cells were seeded in 100 mm-cell dishes (BD Biocoat) at concentrations of 3.7×10^5 cells/mL (10 mL/dish) and cultured for 24 h at 37° C. and 5% CO2. Culture medium used was F12/DMEM (Gibco) supplemented with 1% non-essential amino acids (Gibco), 15% FBS (Bio West), and 1% penicillin/streptomycin (Lonza). After 24 h, the culture medium was completely removed with an aspirator, 10 mL of culture medium Opti-MEM(Gibco) was added to each dish, and the cells were cultured for 24 h at 37° C. and 5% CO2. RNA was extracted from the culture cells and analyzed for the expression of genes described below by real-time PCR (designated as “Control” in FIGS. 2 to 8).
(§2) RNA extraction was performed using ISOGEN Reagent (Nippon Gene Co., Ltd.) in accordance with the protocol recommended by Nippo n Gene Co., Ltd. (see URL: https://www.nippongene.com/siyaku/product/extraction/tds/tds_isogen-rna-dna-protein.pdf). Real-time PCR was performed according to the protocol recommended by Thermo Fisher Scientific using a reagent kit for TaqMan Real-Time PCR (Thermo Fisher Scientific) (see URL: https://assets.thermofisher.com/TFS-Assets/LSG/manuals/4304449_TaqManPCRMM_UG.pdf).
(§3) 24 h after seeding 100 mm-cell dishes (BD Biocoat) with SH-SY5Y cells, the culture medium was completely removed with an aspirator, amyloid β protein (Beta-Amyloid 1-42, AnaSpec) was mixed with Opti-MEM (Gibco) so that the final concentration was 5 μM, 10 mL of the mixture was added to each dish, the cells were cultured for 24 h at 37° C. and 5% CO2, and RNA was extracted. Except for performing the procedure described above, gene expression was analyzed as described above (designated as “Aβ” in FIGS. 2 to 8).
(§4) 24 h after seeding 100 mm-cell dishes (BD Biocoat) with SH-SY5Y cells, the culture medium was completely removed with an aspirator, Sample 1 was mixed with culture medium Opti-MEM(Gibco) so that the final concentration was 12.56 μM, 9,990 μL of the mixture was added to each dish and allowed to stand for 10 min, amyloid β protein (Beta-Amyloid 1-42, AnaSpec) was mixed with Opti-MEM (Gibco) so that the final concentration was […], 10 μL of the mixture was added to each well, the cells were cultured for 24 h at 37° C. and 5% CO2, and RNA was extracted. Except for performing the procedure described above, Gene expression was analyzed as described above (designated as “Aβ+M3,5G” in FIGS. 2 to 8).
(§5) Except that Sample 2 was used instead of Sample 1, gene expression was analyzed as described above (designated as “Aβ+M” in FIGS. 2 to 8).
(§6) Except that Sample 3 was used instead of Sample 1, gene expression was analyzed as described above (designated as “Aβ+M3G” in FIGS. 2 to 8).
(§7) 24 h after seeding 100 mm-cell dishes (BD Biocoat) with SH-SY5Y cells, the culture medium was completely removed with an aspirator, 10 mL of culture medium Opti-MEM(Gibco) mixed with Sample 1 was added to each dish, the cells were cultured for 24 h at 37° C. and 5% CO2, and RNA was extracted. Except for performing the procedure described above, gene expression was analyzed as described above (designated as “M3,5G” in FIGS. 2 to 8).

Test [2] has as its system MAPK14 (mitogen-activated protein kinase 14). Kind of test: Gene expression experiment (real-time PCR) in SH-SY5Y cells: MAPK14. The note with it: 12.56 μM, amyloid β protein-treated cells, 24 h; compared to “Aβ”. On the procedure: as §1, §2, §3, §4, §5
(§8) Except that Sample 3 was used instead of Sample 1, gene expression was analyzed as described above (designated as “Aβ+M3G” in FIGS. 2 to 8). […]
(Real-time PCR tracks product formation cycle by cycle.)

For test [3], the system named is MAPK8 (mitogen-activated protein kinase 8). Kind of test: Gene expression experiment (real-time PCR) in SH-SY5Y cells: MAPK8. Particulars: 12.56 μM, amyloid β protein-treated cells, 24 h; compared to “Aβ”. On the procedure: as §1, §2, §3, §4, §5, §8
In test [4] the test system is PI3KCA (phosphatidylinositol-4,5-bisphosphate 3-kinase catalyst subunit α). Briefly: Gene expression experiment (real-time PCR) in SH-SY5Y cells: PI3KCA. The note with it: 12.56 μM, amyloid β protein-treated cells, 24 h; compared to “Aβ”. The protocol: as §1, §2, §3, §4, §5, §6, §7
Test [5] relates to AKT1 (AKT serine/threonine kinase 1). Briefly: Gene expression experiment (real-time PCR) in SH-SY5Y cells: AKT1. Particulars: 12.56 μM, amyloid β protein-treated cells, 24 h; compared to “Aβ”. The protocol: as §1, §2, §3, §4, §5, §6, §7
The subject of test [6] is PARP1 (poly(ADP-ribose) polymerase 1). Briefly: Gene expression experiment (real-time PCR) in SH-SY5Y cells: PARP1. Particulars: 12.56 μM, amyloid β protein-treated cells, 24 h; compared to “Aβ”. On the procedure:
as §1, §2, §3, §4, §5, §8

The test system of the next test is CASP3 (caspase-3). Kind of test: Gene expression experiment (real-time PCR) in SH-SY5Y cells: CASP3. Particulars: 12.56 μM, amyloid β protein-treated cells, 24 h; compared to “Aβ”. The protocol: as §1, §2, §3, §4, §5, §6, §7

Experimental findings from patent publication US20220241308A1, “NEURONAL FUNCTION MODULATING AGENT” (University of Tsukuba, priority 2019, published 2022) are described below.

The structures appear in SMILES notation.

Turning to `COc1cc(-c2[o+]c3cc(O)cc(O)c3cc2O)cc(OC)c1O` [malvidin, Malvidin chloride, reference compound], the “% relative cell survival” value in the test with SH-SY5Y cells is “Inhibition of cell death was also confirmed”. In addition, the “expression of MAP2K4” value in test [1] is “increase”. The “expression of MAPK14” value in test [2] was “increase”. The “expression of MAPK8” value in test [3] is reported as “increase”. For the same molecule, the “expression of PI3KCA” value in test [4] is “increase”. The “expression of AKT1” value in test [5] is given as “increase”. The “expression of PARP1” value in test [6] was “increase”. Further, the “expression of CASP3” value in the test on CASP3 (caspase-3) was “decrease”.

Regarding `COc1cc(-c2[o+]c3cc(O)cc(O)c3cc2O[C@@H]2O[C@H](CO)[C@@H](O)[C@H](O)[C@H]2O)cc(OC)c1O.[Cl-]` [malvidin-3-glucoside, Malvidin-3-glucoside chloride, reference compound], in test [1], the “expression of MAP2K4” value is listed as “increase”. Besides, the “expression of MAPK14” value in test [2] was “increase”. Besides, the “expression of PI3KCA” value in test [4] is “increase”. The “expression of AKT1” value in test [5] is listed as “increase”. Moreover, the “expression of PARP1” value in test [6] is “increase”.
